Results published in patent US11919887B2, “Substituted tetrahydrofurans as modulators of sodium channels” (Vertex Pharmaceuticals Incorporated, priority 2019, dated 2024).

Target: human Nav 1.8 (Homo sapiens, UniProt Q9Y5Y9)
Experiment: E-VIPR assay detecting and measuring Nav inhibition (HEK cells expressing truncated human Nav 1.8)
Assay type: cell-based
Conditions: in the Absence of Human Serum in the E-VIPR Assay
In short: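 HEK cells expressing truncated human Nav1.8, transduced with KIR2.1 BacMam, were loaded with CC2-DMPE/DiSBAC6(3) FRET dyes and tested under electrical stimulation (E-VIPR). Compounds were run as 11-point 3-fold dilutions, top 300 nM final, 0.625% DMSO, with or without 25% human serum.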

human Nav 1.8, sequence (Q9Y5Y9 whole entry, looked up, the tested form may be a part): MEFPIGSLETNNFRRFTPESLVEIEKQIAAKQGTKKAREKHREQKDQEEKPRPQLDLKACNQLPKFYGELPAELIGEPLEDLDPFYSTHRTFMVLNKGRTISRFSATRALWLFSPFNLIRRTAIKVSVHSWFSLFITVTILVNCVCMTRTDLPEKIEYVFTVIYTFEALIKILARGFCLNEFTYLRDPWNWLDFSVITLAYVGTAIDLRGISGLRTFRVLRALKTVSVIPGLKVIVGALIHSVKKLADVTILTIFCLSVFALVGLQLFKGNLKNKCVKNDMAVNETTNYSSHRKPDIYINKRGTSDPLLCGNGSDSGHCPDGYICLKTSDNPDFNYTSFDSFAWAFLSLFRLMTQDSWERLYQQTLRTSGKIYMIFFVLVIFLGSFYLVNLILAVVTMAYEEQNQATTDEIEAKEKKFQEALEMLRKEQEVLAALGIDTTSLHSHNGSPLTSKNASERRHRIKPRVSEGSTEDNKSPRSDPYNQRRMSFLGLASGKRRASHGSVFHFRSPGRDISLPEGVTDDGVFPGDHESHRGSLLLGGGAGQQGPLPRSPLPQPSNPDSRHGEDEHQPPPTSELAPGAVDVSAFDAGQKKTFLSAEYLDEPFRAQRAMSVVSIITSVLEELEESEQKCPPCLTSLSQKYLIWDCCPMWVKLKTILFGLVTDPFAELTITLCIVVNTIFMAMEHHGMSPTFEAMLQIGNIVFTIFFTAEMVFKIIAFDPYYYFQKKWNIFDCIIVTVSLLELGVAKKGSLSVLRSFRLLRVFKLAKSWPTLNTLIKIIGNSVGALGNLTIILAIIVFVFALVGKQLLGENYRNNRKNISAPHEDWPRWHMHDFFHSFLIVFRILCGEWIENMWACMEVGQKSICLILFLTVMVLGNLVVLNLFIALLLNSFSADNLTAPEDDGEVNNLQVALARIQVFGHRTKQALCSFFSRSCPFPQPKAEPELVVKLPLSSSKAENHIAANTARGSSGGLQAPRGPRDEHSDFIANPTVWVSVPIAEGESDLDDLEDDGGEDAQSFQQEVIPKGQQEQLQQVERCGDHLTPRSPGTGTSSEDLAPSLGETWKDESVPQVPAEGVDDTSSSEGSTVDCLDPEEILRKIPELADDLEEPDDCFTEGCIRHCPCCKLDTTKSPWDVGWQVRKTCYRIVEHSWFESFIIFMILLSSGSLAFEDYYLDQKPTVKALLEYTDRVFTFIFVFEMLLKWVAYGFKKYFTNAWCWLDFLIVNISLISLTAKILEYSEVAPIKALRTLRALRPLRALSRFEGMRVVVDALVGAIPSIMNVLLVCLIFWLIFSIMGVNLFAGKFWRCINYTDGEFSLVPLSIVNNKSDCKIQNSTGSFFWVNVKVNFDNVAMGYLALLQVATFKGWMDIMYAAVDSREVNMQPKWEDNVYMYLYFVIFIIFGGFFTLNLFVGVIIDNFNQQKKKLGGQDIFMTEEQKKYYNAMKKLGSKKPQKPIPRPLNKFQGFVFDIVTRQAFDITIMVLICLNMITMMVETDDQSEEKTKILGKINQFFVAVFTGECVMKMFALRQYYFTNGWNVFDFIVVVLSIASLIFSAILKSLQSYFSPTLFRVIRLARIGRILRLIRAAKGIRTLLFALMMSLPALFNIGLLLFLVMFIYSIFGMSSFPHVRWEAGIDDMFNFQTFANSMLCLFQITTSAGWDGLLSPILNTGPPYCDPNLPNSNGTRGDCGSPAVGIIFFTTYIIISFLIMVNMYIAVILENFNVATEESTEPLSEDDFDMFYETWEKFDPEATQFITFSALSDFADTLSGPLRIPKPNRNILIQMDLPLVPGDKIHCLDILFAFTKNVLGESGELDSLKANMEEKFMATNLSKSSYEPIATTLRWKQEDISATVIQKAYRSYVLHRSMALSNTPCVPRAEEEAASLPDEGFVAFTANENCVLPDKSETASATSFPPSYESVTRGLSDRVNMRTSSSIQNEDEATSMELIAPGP

Molecule COc1c([C@@H]2[C@@H](C)[C@](C)(C(F)(F)F)O[C@H]2C(=O)Nc2ccnc(C(N)=O)c2)ccc(F)c1F [Compound 50, 4-[[(2R,3S,4R,5R)-3-(3,4-difluoro-2-methoxy-phenyl)-4,5-dimethyl-5-(trifluoromethyl)tetrahydrofuran-2-carbonyl]amino]pyridine-2-carboxamide] has an IC50 of 10 to 100 nM.

Same assay, conditions: in the Absence of Human Serum in the E-VIPR Assay; read-out: IC50

First: COc1nc(C(F)F)ccc1[C@@H]1[C@@H](C(=O)Nc2ccnc(C(N)=O)c2)O[C@](C)(C(F)(F)F)[C@@H]1C (stereo in doubt) [Compound 141, rel-(2S,3R,4R,5S)-4-[[3-[6-(difluoromethyl)-2-methoxy-3-pyridyl]-4,5-dimethyl-5-(trifluoromethyl)tetrahydrofuran-2-carbonyl]amino]pyridine-2-carboxamide]
Second: COc1c([C@H]2[C@H](C(=O)Nc3cc(C(N)=O)ccn3)O[C@@](C)(C(F)(F)F)[C@H]2C)ccc(F)c1F [Compound 120, 2-[[(2R,3S,4S,5R)-3-(3,4-difluoro-2-methoxy-phenyl)-4,5-dimethyl-5-(trifluoromethyl)tetrahydrofuran-2-carbonyl]amino]pyridine-4-carboxamide]
The IC50 of the first is higher: > 1000 nM for the first, 10 to 100 nM for the second. The second is the more potent here.

COc1c([C@H]2[C@H](C(=O)Nc3cccc(C(N)=O)n3)O[C@@](C)(C(F)(F)F)[C@H]2C)ccc(F)c1F [Compound 114, 6-[[(2R,3S,4S,5R)-3-(3,4-difluoro-2-methoxy-phenyl)-4,5-dimethyl-5-(trifluoromethyl)tetrahydrofuran-2-carbonyl]amino]pyridine-2-carboxamide] and COc1c([C@H]2[C@H](C(=O)Nc3cncc(C(N)=O)n3)O[C@@](C)(C(F)(F)F)[C@H]2C)ccc(F)c1F [Compound 117, 6-[[(2R,3S,4S,5R)-3-(3,4-difluoro-2-methoxy-phenyl)-4,5-dimethyl-5-(trifluoromethyl)tetrahydrofuran-2-carbonyl]amino]pyrazine-2-carboxamide] fall in the same range of IC50: 10 to 100 nM for the first, 10 to 100 nM for the second.

COc1c([C@H]2[C@H](C(=O)Nc3cncc(C(N)=O)c3)O[C@@](C)(C(F)(F)F)[C@H]2C)ccc(F)c1F [Compound 118, 5-[[(2R,3S,4S,5R)-3-(3,4-difluoro-2-methoxy-phenyl)-4,5-dimethyl-5-(trifluoromethyl)tetrahydrofuran-2-carbonyl]amino]pyridine-3-carboxamide] and COc1c([C@H]2[C@H](C(=O)Nc3cc(C(N)=O)ncc3C)O[C@@](C)(C(F)(F)F)[C@H]2C)ccc(F)c1F [Compound 119, 4-[[(2R,3S,4S,5R)-3-(3,4-difluoro-2-methoxy-phenyl)-4,5-dimethyl-5-(trifluoromethyl)tetrahydrofuran-2-carbonyl]amino]-5-methyl-pyridine-2-carboxamide] cannot be ordered by IC50: < 10 nM for the first, < 10 nM for the second.

Same assay, conditions: in the Presence of Human Serum in the E-VIPR Assay

First: COc1c([C@@H]2[C@@H](C(=O)Nc3ccnc(C(N)=O)c3)O[C@](C)(C(F)(F)F)[C@@H]2C)ccc(F)c1F [Compound 6, (2S,3R,4R,5S)-4-[[3-(3,4-difluoro-2-methoxy-phenyl)-4,5-dimethyl-5-(trifluoromethyl)tetrahydrofuran-2-carbonyl]amino]pyridine-2-carboxamide]
Second: COc1c([C@H]2[C@H](C(=O)Nc3ccnc(C(N)=O)c3)O[C@@](C)(C(F)(F)F)[C@H]2C)ccc(F)c1F [Compound 7, (2R,3S,4S,5R)-4-[[3-(3,4-difluoro-2-methoxy-phenyl)-4,5-dimethyl-5-(trifluoromethyl)tetrahydrofuran-2-carbonyl]amino]pyridine-2-carboxamide]
The IC50 of the first is higher: > 1000 nM for the first, < 10 nM for the second. The second is the more potent here.

Same assay, conditions: in the Presence of Human Serum in the E-VIPR Assay; read-out: IC50

First: Cc1cnc(C(N)=O)cc1NC(=O)[C@@H]1O[C@@](C)(C(F)(F)F)[C@@H](C)[C@H]1c1ccc(F)c(F)c1OC(F)F (stereo in doubt) [Compound 150, rel-(2R,3S,4S,5R)-4-[[3-[2-(difluoromethoxy)-3,4-difluoro-phenyl]-4,5-dimethyl-5-(trifluoromethyl)tetrahydrofuran-2-carbonyl]amino]-5-methyl-pyridine-2-carboxamide]
Second: Cc1cnc(C(N)=O)cc1NC(=O)[C@H]1O[C@](C)(C(F)(F)F)[C@H](C)[C@@H]1c1ccc(F)c(F)c1OC(F)F (stereo in doubt) [Compound 151, rel-(2S,3R,4R,5S)-4-[[3-[2-(difluoromethoxy)-3,4-difluoro-phenyl]-4,5-dimethyl-5-(trifluoromethyl)tetrahydrofuran-2-carbonyl]amino]-5-methyl-pyridine-2-carboxamide]
The IC50 of the first is higher: > 1000 nM for the first, 10 to 100 nM for the second.

Going from Cc1c(F)ccc([C@@H]2[C@@H](C(=O)Nc3ccnc(C(N)=O)c3)O[C@](C)(C(F)(F)F)[C@@H]2C)c1OC(F)F (stereo in doubt) [compound 53] to C[C@@H]1[C@H](c2ccc(F)c(F)c2OC(F)F)[C@@H](C(=O)Nc2ccnc(C(N)=O)c2)O[C@]1(C)C(F)(F)F [Compound 10, (2S,3R,4R,5S)-4-[[3-[2-(difluoromethoxy)-3,4-difluoro-phenyl]-4,5-dimethyl-5-(trifluoromethyl)tetrahydrofuran-2-carbonyl]amino]pyridine-2-carboxamide], the IC50 rises from < 10 nM to > 1000 nM. The first is the more potent here.

First: CCOc1c([C@@H]2[C@@H](C(=O)Nc3ccnc(C(N)=O)c3)O[C@](C)(C(F)(F)F)[C@@H]2C)ccc(F)c1F [Compound 8, (2S,3R,4R,5S)-4-[[3-(2-ethoxy-3,4-difluoro-phenyl)-4,5-dimethyl-5-(trifluoromethyl)tetrahydrofuran-2-carbonyl]amino]pyridine-2-carboxamide]
Second: CCOc1c([C@H]2[C@H](C(=O)Nc3ccnc(C(N)=O)c3)O[C@@](C)(C(F)(F)F)[C@H]2C)ccc(F)c1F [Compound 9, (2R,3S,4S,5R)-4-[[3-(2-ethoxy-3,4-difluoro-phenyl)-4,5-dimethyl-5-(trifluoromethyl)tetrahydrofuran-2-carbonyl]amino]pyridine-2-carboxamide]
The IC50 of the first is higher: > 1000 nM for the first, < 10 nM for the second.

First: C[C@H]1[C@@H](c2ccc(F)c(F)c2OC(F)F)[C@H](C(=O)Nc2ccnc(C(N)=O)c2)O[C@@]1(C)C(F)(F)F [Compound 11, (2R,3S,4S,5R)-4-[[3-[2-(difluoromethoxy)-3,4-difluoro-phenyl]-4,5-dimethyl-5-(trifluoromethyl)tetrahydrofuran-2-carbonyl]amino]pyridine-2-carboxamide]
Second: C[C@H]1[C@@H](c2ccc(F)c(F)c2O)[C@H](C(=O)Nc2ccnc(C(N)=O)c2)O[C@@]1(C)C(F)(F)F [Compound 27, (2R,3S,4S,5R)-4-[[3-(3,4-difluoro-2-hydroxy-phenyl)-4,5-dimethyl-5-(trifluoromethyl)tetrahydrofuran-2-carbonyl]amino]pyridine-2-carboxamide]
The IC50 of the first is lower: < 10 nM for the first, 10 to 100 nM for the second.

C[C@H]1[C@@H](c2ccc(F)c(F)c2OC(F)F)[C@H](C(=O)Nc2cc[n+]([O-])c(C(N)=O)c2)O[C@@]1(C)C(F)(F)F [Compound 18, (2R,3S,4S,5R)-4-[[3-[2-(difluoromethoxy)-3,4-difluoro-phenyl]-4,5-dimethyl-5-(trifluoromethyl)tetrahydrofuran-2-carbonyl]amino]-1-oxido-pyridin-1-ium-2-carboxamide] and COc1c([C@H]2[C@H](C(=O)Nc3cc[n+]([O-])c(C(N)=O)c3)O[C@@](C)(C(F)(F)F)[C@H]2C)ccc(F)c1F [Compound 19, (2R,3S,4S,5R)-4-[[3-(3,4-difluoro-2-methoxy-phenyl)-4,5-dimethyl-5-(trifluoromethyl)tetrahydrofuran-2-carbonyl]amino]-1-oxido-pyridin-1-ium-2-carboxamide] cannot be ordered by IC50: < 10 nM for the first, < 10 nM for the second.

First: COc1c([C@H]2C[C@](C)(C(F)(F)F)O[C@@H]2C(=O)Nc2ccnc(C(N)=O)c2)ccc(F)c1Cl [Compound 21, (2S,3R,5R)-4-[[3-(3-chloro-4-fluoro-2-methoxy-phenyl)-5-methyl-5-(trifluoromethyl)tetrahydrofuran-2-carbonyl]amino]pyridine-2-carboxamide]
Second: COc1c([C@@H]2C[C@@](C)(C(F)(F)F)O[C@H]2C(=O)Nc2ccnc(C(N)=O)c2)ccc(F)c1Cl [Compound 23, (2R,3S,5S)-4-[[3-(3-chloro-4-fluoro-2-methoxy-phenyl)-5-methyl-5-(trifluoromethyl)tetrahydrofuran-2-carbonyl]amino]pyridine-2-carboxamide]
The IC50 of the first is higher: > 1000 nM for the first, 10 to 100 nM for the second. The second is the more potent here.

Going from CCOc1c([C@H]2[C@H](C(=O)Nc3cc[n+]([O-])c(C(N)=O)c3)O[C@@](C)(C(F)(F)F)[C@H]2C)ccc(F)c1F [Compound 55, (2R,3S,4S,5R)-4-[[3-(2-ethoxy-3,4-difluoro-phenyl)-4,5-dimethyl-5-(trifluoromethyl)tetrahydrofuran-2-carbonyl]amino]-1-oxido-pyridin-1-ium-2-carboxamide] to C[C@H]1[C@@H](c2ccc(F)c(F)c2O)[C@H](C(=O)Nc2cc[n+]([O-])c(C(N)=O)c2)O[C@@]1(C)C(F)(F)F [Compound 57, 4-[[(2R,3S,4S,5R)-3-(3,4-difluoro-2-hydroxy-phenyl)-4,5-dimethyl-5-(trifluoromethyl)tetrahydrofuran-2-carbonyl]amino]-1-oxido-pyridin-1-ium-2-carboxamide], the IC50 rises from < 10 nM to > 1000 nM.

Compared with [2H]C([2H])([2H])Oc1c([C@H]2[C@H](C(=O)Nc3cc[n+]([O-])c(C(N)=O)c3)O[C@@](C)(C(F)(F)F)[C@H]2C)ccc(F)c1F [Compound 56, 4-[[(2R,3S,4S,5R)-3-[3,4-difluoro-2-(trideuteriomethoxy)phenyl]-4,5-dimethyl-5-(trifluoromethyl)tetrahydrofuran-2-carbonyl]amino]-1-oxido-pyridin-1-ium-2-carboxamide], COc1c([C@@H]2[C@H](C)[C@H](C(C)C)O[C@H]2C(=O)Nc2ccnc(C(N)=O)c2)ccc(F)c1F [Compound 113, 4-[[(2R,3S,4S,5S)-3-(3,4-difluoro-2-methoxy-phenyl)-5-isopropyl-4-methyl-tetrahydrofuran-2-carbonyl]amino]pyridine-2-carboxamide] is higher in IC50: < 10 nM for the first, 10 to 100 nM for the second. The first is the more potent here.
